The text below walks through data of patent publication US5455278A (priority 1994, dated 1995).

One data set concerns Clostridium botulinum. Format: cell-based. To be noted: anaerobic conditions, 20° C.
A further data set relates to Staphylococcus aureus. The data set can be described thus: Inhibitory effect of falcarindiol on S. aureus (optical density at 600nm, aerobic). Format: cell-based. Particulars: aerobic conditions, 20° C.
Another data set deals with Escherichia coli. The data set can be described thus: Inhibitory effect of falcarindiol on E. coli (optical density at 600nm, aerobic). Particulars: aerobic conditions, 20° C. Format: cell-based.
The subject of the next data set is Salmonella typhimurium. The data set can be described thus: Inhibitory effect of falcarindiol on S. typhimurium (optical density at 600nm, aerobic). To be noted: aerobic conditions, 20° C. Format: cell-based.
Data set [1] in a line: Solubility of falcarindiol. Format: physicochemical.
Data set [2] can be described thus: Inactivation of falcarindiol by heating. Format: physicochemical.
The nature of data set [3]: Effectiveness of falcarindiol as inhibitor versus pH and aerobic conditions. Format: cell-based.
The conditions of data set [4]: mice; cited from earlier work.
The next data set concerns L. monocytogenes. The data set can be described thus: Effect of oxygen on the inhibitory activity of falcarindiol. Particulars: pH 7.5, 20° C.
For data set [5], the system named is mechanosensitive channels. Particulars: giant spheroplasts of E. coli, patch clamp.

On to `C=CC(O)C#CC#CC(O)C=CCCCCCCC` (stereo not shown) [falcarindiol], for which, in the data set with Clostridium botulinum, the “inhibition of C. botulinum” value is “inhibited”. The “inhibition of S. aureus” value in the data set with Staphylococcus aureus is reported as “inhibited”. In the data set on Escherichia coli, the “inhibition of E. coli” value was “inactive”. In addition, the “inhibition of S. typhimurium” value with Salmonella typhimurium is “inactive”. In data set [1], the “solubility in ethyl acetate” value was “readily soluble”. In [2], the “stability to heating (activity)” value is on record as “can be inactivated by heating”. For the same compound, in data set [3] (aerobic conditions), the “activity under aerobic conditions” value is recorded as “active under aerobic conditions”. Further, the “pH (acidity) values at which it is effective” value in [3] (pH) is “above 5”. The LD50 result in data set [4] is given as “about 100 mg/kg of body weight”. Also, the “inactivation of L. monocytogenes under aerobic conditions” value in the data set with L. monocytogenes (aerobic) is “completely inactivated”. Moreover, the “lag phase of L. monocytogenes under anaerobic conditions” value in the data set with L. monocytogenes (anaerobic) was determined as 15 h. Further, the “inhibition under aerobic versus anaerobic conditions” value in the data set with L. monocytogenes is on record as “much greater under aerobic conditions”. Besides, the “activation of mechanosensitive channels” value in [5] was “mechanosensitive channels were activated”.
